Results published in US20150072888A1, “Biomarkers For Diagnosis Of Diabetes And Monitoring Of Anti-Diabetic Therapy” (Sumitomo Bakelite Co., Ltd., priority 2012, published 2015).

Legend:
db/db mice [1] = assay: Plasma N-glycan profile (GLYCANMAP, MALDI-TOF MS) of db/db mice treated with rosiglitazone, initial study (Table 1 summarises both rosiglitazone studies); format: in vivo, mouse; settings: first rosiglitazone study, db/db mice vs vehicle
Experimental: A 10 μl aliquot of each plasma sample was spiked with internal standard (700 pmol) and analyzed for N-linked glycans using Ezose Sciences' GLYCANMAP methodology. The samples were denatured and then digested with trypsin, followed by heat-inactivation. The mixture was then treated with PNGase F. After enzymatic release of N-glycans, aliquots were subjected to solid-phase processing using BLOTGLYCO beads. Following capture on the beads, the sialic acid residues were methyl esterified. The glycans were simultaneously released from the beads and labeled, and then aliquots of the recovered materials were spotted onto a MALDI target plate. […]
Rosigilitazone is a member of the athiazolidinedione class of anti-diabetic drugs, and is marketed by Glaxo under the trade name AVANDIA. […] A baseline (Day 0) sample was not analyzed in the initial rosiglitazone study, but was included in a subsequent rosiglitazone confirmatory study. […]
Several criteria were used in the initial rosiglitazone study to select the most promising biomarkers. Statistical significance was evaluated based on the Mann-Whitney test or Student's t-test and changes considered significant if the resulting p-value was less than 0.05. […] After the confirmatory rosiglitazone study, one glycan (530010) that had been excluded in the initial study was re-evaluated. […]

db/db mice [2] = assay: Plasma N-glycan profile of db/db mice treated with insulin detemir; format: in vivo, mouse; settings: for Direction of change of hybrid glycan 430010 / Direction of change of hybrid glycan 530010 / Direction of change of hybrid glycan 630010: days 7, 14, 21, significant as early as Day 7; for Direction of change of high mannose glycan 520000 (Man5GlcNAc2) / Direction of change of high mannose glycan 620000 (Man6GlcNAc2) / Direction of change of high mannose glycan 720000 (Man7GlcNAc2) / Direction of change of high mannose glycan 820000 (Man8GlcNAc2): significant at Day 7, 14 and 21
Experimental: A 10 μl aliquot of each plasma sample was spiked with internal standard (700 pmol) and analyzed for N-linked glycans using Ezose Sciences' GLYCANMAP methodology. The samples were denatured and then digested with trypsin, followed by heat-inactivation. The mixture was then treated with PNGase F. After enzymatic release of N-glycans, aliquots were subjected to solid-phase processing using BLOTGLYCO beads. Following capture on the beads, the sialic acid residues were methyl esterified. The glycans were simultaneously released from the beads and labeled, and then aliquots of the recovered materials were spotted onto a MALDI target plate. Steps from initial aliquoting to spotting on the MALDI plate were performed using the fully automated SWEETBLOT technology. MALDI-TOF MS analysis was performed on an ultraflex III mass spectrometer (Bruker Daltonics) in the positive-ion, reflector mode. Each sample from the BLOTGLYCO bead processing step was spotted in quadruplicate, and spectra were obtained in an automated manner using the AutoXecute feature in flexControl software (Bruker Daltonics). Proposed glycan structures were assigned based on molecular weight. These methods have been described previously by Nishimura, Furukawa and Miura (Nishimura et al., Angew Chem. Int. Ed. Engl., 44: 91-96 (2004); Furukawa et al., Anal. Chem., 80: 1094-1101 (2008); Miura et al., Chem.-A Eur. J, 13: 4797-4804 (2007)). Alternatively, standard fluorescent HPLC or capillary electrophoresis methods with 2-AA, 2-AB, or APTS labeling can be used to monitor the glycan levels and changes in glycan patterns.
A further study was undertaken to evaluate the performance of candidate biomarkers discovered using rosiglitazone in mice treated with a diabetes drug having a different mechanism of action. The candidate biomarkers that were identified in Example 1 were evaluated in db/db mice treated with insulin detemir and vehicle.
Plasma samples were analyzed from ten db/db mice at baseline (0 days) and from 20 db/db mice (ten vehicle and ten insulin detemir-treated) at 7, 14, and 21 days. Sample preparation and analysis followed the protocol described in Example 1.
Concentrations of individual glycans in insulin detemir- and vehicle-treated db/db mice were compared at each time-point using the Student's t-test. N-glycans which yielded p-values<0.05 in this analysis were considered significant. Time-dependence was also evaluated for each of the candidate biomarkers by comparing each time-point to baseline.

[3] = db/db mice plasma vs vehicle, listed as Insulin Detemir

Compound	Time until highly significant difference (p<0.001) was achieved for HbA1c (db/db mice [1])	Changes in HbA1c compared with rosiglitazone (db/db mice [2]; db/db mice)	Magnitude of changes in high-mannose glycans compared with rosiglitazone (db/db mice [2]; db/db mice plasma)	Changes in Glycan 540020 (db/db mice [2]; db/db mice plasma vs vehicle)	Changes in O-acetylated N-glycans (db/db mice [2]; db/db mice plasma vs vehicle)	Changes in fucosylated N-glycans (db/db mice [2]; db/db mice plasma vs vehicle)	Direction of change of hybrid glycan 430010 (db/db mice [2]; db/db mice plasma vs vehicle)	Direction of change of hybrid glycan 530010 (db/db mice [2]; db/db mice plasma vs vehicle)	Direction of change of hybrid glycan 630010 (db/db mice [2]; db/db mice plasma vs vehicle)	Direction of change of hybrid glycan 430010 (db/db mice [2]; [3])	Direction of change of hybrid glycan 530010 (db/db mice [2]; [3])	Direction of change of hybrid glycan 630010 (db/db mice [2]; [3])	Direction of change of high mannose glycan 520000 (Man5GlcNAc2) (db/db mice [2]; db/db mice plasma vs vehicle)	Direction of change of high mannose glycan 620000 (Man6GlcNAc2) (db/db mice [2]; db/db mice plasma vs vehicle)	Direction of change of high mannose glycan 720000 (Man7GlcNAc2) (db/db mice [2]; db/db mice plasma vs vehicle)	Direction of change of high mannose glycan 820000 (Man8GlcNAc2) (db/db mice [2]; db/db mice plasma vs vehicle)	Direction of change of high mannose glycan 520000 (Man5GlcNAc2) (db/db mice [2]; [3])	Direction of change of high mannose glycan 620000 (Man6GlcNAc2) (db/db mice [2]; [3])	Direction of change of high mannose glycan 720000 (Man7GlcNAc2) (db/db mice [2]; [3])	Direction of change of high mannose glycan 820000 (Man8GlcNAc2) (db/db mice [2]; [3])
CN(CCOc1ccc(CC2SC(=O)NC2=O)cc1)c1ccccn1 (centres unmarked) [rosiglitazone]	21 days	–	–	–	–	–	–	–	–	–	–	–	–	–	–	–	–	–	–	–
insulin detemir	–	more subtle changes	lower in magnitude	no significant changes	no significant changes	no significant changes	significant decreases	significant decreases	significant decreases	Decreased	Decreased	Decreased	lower levels	lower levels	lower levels	lower levels	Decreased	Decreased	Decreased	Decreased
